Measured values: ChEMBL document CHEMBL1201862, “PubChem BioAssay data set” (2004)
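Growth conditions: 96-well plates. Treatment: test compound, 48 hours, 5 concentrations. Analysis: linear interpolation between bracketing concentrations; unreached endpoints set to highest concentration. GI50 marks 50% less growth.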 Calls of active or inactive are those of the source. Cut-off read from the data, not from the text of the source: active = GI50 up to about 1.1 µM and inactive = higher.

What was measured:
Assay in all cases: inhibition of tumour cell growth, NCI panel, 48 h
786-0 = system: 786-0
DU-145 = system: DU-145
ACHN = system: ACHN
EKVX = system: EKVX
NCI-H522 = system: NCI-H522
OVCAR-4 = system: OVCAR-4
KM12 = system: KM12
SK-OV-3 = system: SK-OV-3
UO-31 = system: UO-31
U-251 = system: U-251
NCI-H226 = system: NCI-H226
RPMI-8226 = system: RPMI-8226
M14 = system: M14
MDA-N = system: MDA-N
MDA-MB-231 = system: MDA-MB-231
Hs-578T = system: Hs-578T
SK-MEL-28 = system: SK-MEL-28
LOX IMVI = system: LOX IMVI
HT-29 = system: HT-29
OVCAR-3 = system: OVCAR-3

Measured: GI50

Cc1ccc(S(=O)(=O)OC2=C/C(=N\c3onc(C)c3C)c3ccccc3C2=O)cc1
inactive: 786-0 37.1 µM | DU-145 51.6 µM | ACHN 26.3 µM | EKVX > 100 µM | NCI-H522 7.46 µM | OVCAR-4 16.4 µM | KM12 20.2 µM | SK-OV-3 28.7 µM | UO-31 17 µM | U-251 4 µM | NCI-H226 35.4 µM | RPMI-8226 7.96 µM | M14 18.8 µM | MDA-N 25.2 µM | MDA-MB-231 19.7 µM | Hs-578T 38.5 µM | SK-MEL-28 44.3 µM | LOX IMVI 18.6 µM | HT-29 34.2 µM | OVCAR-3 16.5 µM

O=C(O)C1C2C=CC(O2)C1C(=O)Nc1ncccn1 (stereo not given)
inactive: 786-0 > 100 µM | DU-145 > 100 µM | ACHN > 100 µM | EKVX > 100 µM | NCI-H522 > 100 µM | OVCAR-4 > 100 µM | KM12 > 100 µM | SK-OV-3 > 100 µM | UO-31 > 100 µM | U-251 > 100 µM | NCI-H226 > 100 µM | RPMI-8226 > 100 µM | M14 > 100 µM | MDA-N > 100 µM | MDA-MB-231 > 100 µM | Hs-578T > 100 µM | SK-MEL-28 > 100 µM | LOX IMVI > 100 µM | HT-29 > 100 µM | OVCAR-3 > 100 µM

CCOC(=O)CCNC(=O)c1cc(C)cc2c1Oc1c(cc(C)cc1C(=O)NCCC(=O)OCC)S2
inactive: 786-0 50 µM | DU-145 > 100 µM | ACHN > 100 µM | EKVX > 100 µM | NCI-H522 40.6 µM | OVCAR-4 > 100 µM | KM12 > 100 µM | SK-OV-3 > 100 µM | UO-31 > 100 µM | U-251 62.5 µM | NCI-H226 81.7 µM | RPMI-8226 > 100 µM | M14 > 100 µM | MDA-N 88.3 µM | MDA-MB-231 25.2 µM | Hs-578T 34 µM | SK-MEL-28 > 100 µM | LOX IMVI 95.9 µM | HT-29 > 100 µM | OVCAR-3 > 100 µM

O=C(O)CCCCn1ccc(=O)[nH]c1=O
inactive: 786-0 > 100 µM | DU-145 > 100 µM | ACHN > 100 µM | EKVX > 100 µM | NCI-H522 > 100 µM | OVCAR-4 > 100 µM | KM12 > 100 µM | SK-OV-3 > 100 µM | UO-31 > 100 µM | U-251 > 100 µM | NCI-H226 > 100 µM | RPMI-8226 > 100 µM | M14 > 100 µM | MDA-N > 100 µM | MDA-MB-231 > 100 µM | Hs-578T > 100 µM | SK-MEL-28 > 100 µM | LOX IMVI > 100 µM | HT-29 > 100 µM | OVCAR-3 > 100 µM
